# In US20040234972A1, “Method for identifying and purifying smooth muscle progenitor cells” (priority 2001, published 2004):
# Legend:
# [1] = tested on: P19 cells; experiment: RA-induced SMC differentiation of parental P19 cells; format: cell-based, mouse; conditions: within 4 days
# Procedure: P19 cells were obtained from American Type Culture Collection (CRL-1825). Cells were maintained in α-minimum essential medium (α-MEM, Sigma, M0644) supplemented with 7.5% fetal bovine serum (FBS), 200 μg/ml L-glutamine and penicillin/streptomycin (Lifetechnologies). For transfection and differentiation induction experiments, P19 cell cultures less than 6 passages from the initial culture obtained from ATCC were used. […] Cells were trypsinized and plated in a 10 cm dish in α-MEM containing 7.5% FBS and 1 μmol/L all trans-retinoic acid (Sigma, R2625) at a density of 10,000 cells/cm^2 (day 0). The culture medium was replaced once on day 2. On day 3, RA was removed from the culture medium. On day 4, cells were trypsinized and plated in two 10 cm dishes in the medium containing 0.5 ng/ml puromycin (Clontech). Except otherwise noted, samples for various analyses were prepared from cells treated with puromycin for two days. During puromycin selection, the medium was replaced every day.
# [2] = tested on: A404 cells; experiment: RA-induced SMC differentiation of A404 cells, immunocytochemical staining; format: cell-based, mouse
# Procedure: The culture methods for SMC differentiation are outlined in FIG. 1. Cells were trypsinized and plated in a 10 cm dish in α-MEM containing 7.5% FBS and 1 μmol/L all trans-retinoic acid (Sigma, R2625) at a density of 10,000 cells/cm^2 (day 0). The culture medium was replaced once on day 2. On day 3, RA was removed from the culture medium. On day 4, cells were trypsinized and plated in two 10 cm dishes in the medium containing […] puromycin (Clontech). Except otherwise noted, samples for various analyses were prepared from cells treated with puromycin for two days. During puromycin selection, the medium was replaced every day.
# Western blot analysis was performed as previously described Regan et al., J. Clin Invest. 2000; 106:1139-47. SM-MHC expression was assessed using a rabbit anti-chicken SM-MHC antibody (1:200,000, a gift from Dr. U. Groschel-Stewart). The specificity of this antibody for mouse MHC isoforms has been thoroughly characterized. The antibody was not reactive with nonmuscle MHCs in Western blotting. Immnunocytochemical staining was performed using Vectastain ABC-AP kit (Vector Laboratories). Antibodies and dilutions used were 1:1000 anti-SM α-actin antibody (Sigma), 1:500 anti-SM-MHC antibody, and 1:1000 anti-neuron-specific β-tubulin antibody (TUJ1, Berkeley Antibody Company).
# [3] = RA-treated A404 cells, after 2-days of puromycin treatment
Structure (SMILES),cells estimated to differentiate into SMCs [1],"α-actin negative neuron-like cells, fraction of total cell population ([2]; by 4 days after RA treatment, no puromycin)","fraction of total A404 cell population stained positively for SM α-actin ([2]; by 4 days following RA treatment, no puromycin) [%]","cells positive for TUJ1 [2, 3] [%]","fraction of neuron-like cells [2, 3]","number of neuronal cells ([2]; RA-treated A404 cells, five-days of puromycin treatment)","cells stained positively for both SM α-actin and SM-MHC ([2]; RA-treated A404 cells, following 2 to 5-days treatment with puromycin) [%]"
"CC1=C(/C=C/C(C)=C/C=C/C(C)=C/C(=O)O)C(C)(C)CCC1 [RA, all trans-retinoic acid]",1-5%,10-20%,> 80,–,–,–,–
COc1ccc(C[C@H](N)C(=O)N[C@H]2[C@@H](O)[C@H](n3cnc4c(N(C)C)ncnc43)O[C@@H]2CO)cc1 [puromycin],–,–,–,< 0.1,5-10%,less than 5%,> 90
